Assay results as given in patent EP2067787A1, “Method for controlling insect populations” (Boehringer Ingelheim International GmbH, priority 2007, dated 2009).
Bridge positions count the residues as written; N and C are the ends. Square brackets hold non-standard residues; d marks the D form. Ends that are not written are not given here. Peptide text beside a SMILES is read from it. pGlu = O=C1CC[C@@H](C(=O)O)N1

Key:
D. pseudoobscura SPR = assay: CHO cell aequorin luminescence assay, insect SPR orthologue; format: cell-based; conditions: CHO cells expressing SPR, aequorin and Gαqi
A. aegypti SPR = assay: as above; format: cell-based, Aedes aegypti; conditions: CHO cells expressing SPR, aequorin and Gαqi
B. mori SPR = assay: as above; format: cell-based, Bombyx mori; conditions: CHO cells expressing SPR, aequorin and Gαqi
[1] = Saudan et al., 2002; cited from earlier work
CG16752 = target: T1, CG16752 (Drosophila melanogaster, UniProt Q8SWR3); assay: CHO cell aequorin luminescence (Ca2+) assay; format: cell-based; conditions: for Ca^2+ responses: 0.1µM or 10µM SP
T1 construct: The relevant GPCRs are expressed from constructs prepared by cloning the entire open reading frame in a pcDNA3.1(+) vector; expressed in transfected cells; host or cells: CHO-K1
T1 sequence (Q8SWR3 1-435): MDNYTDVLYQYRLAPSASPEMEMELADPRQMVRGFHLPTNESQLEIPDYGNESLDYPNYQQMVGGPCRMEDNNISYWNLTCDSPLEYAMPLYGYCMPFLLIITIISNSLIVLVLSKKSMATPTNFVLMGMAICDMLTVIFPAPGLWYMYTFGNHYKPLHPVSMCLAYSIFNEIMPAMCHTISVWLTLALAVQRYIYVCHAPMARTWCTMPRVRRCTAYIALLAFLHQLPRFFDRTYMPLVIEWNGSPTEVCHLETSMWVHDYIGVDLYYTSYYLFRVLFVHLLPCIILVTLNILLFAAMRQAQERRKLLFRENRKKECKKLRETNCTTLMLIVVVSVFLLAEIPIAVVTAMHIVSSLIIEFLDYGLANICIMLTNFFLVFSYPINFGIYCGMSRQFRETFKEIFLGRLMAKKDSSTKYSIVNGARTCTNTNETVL

CG2114 = target: T2, CG2114 (Drosophila melanogaster, UniProt Q9VZW5); assay: CHO cell aequorin luminescence assay, related GPCR; format: cell-based; conditions: 10µM peptide; CHO cells expressing CG2114 and aequorin
T2 construct: The relevant GPCRs are expressed from constructs prepared by cloning the entire open reading frame in a pcDNA3.1(+) vector; expressed in transfected cells; host or cells: CHO-K1
T2 sequence (Q9VZW5 1-549): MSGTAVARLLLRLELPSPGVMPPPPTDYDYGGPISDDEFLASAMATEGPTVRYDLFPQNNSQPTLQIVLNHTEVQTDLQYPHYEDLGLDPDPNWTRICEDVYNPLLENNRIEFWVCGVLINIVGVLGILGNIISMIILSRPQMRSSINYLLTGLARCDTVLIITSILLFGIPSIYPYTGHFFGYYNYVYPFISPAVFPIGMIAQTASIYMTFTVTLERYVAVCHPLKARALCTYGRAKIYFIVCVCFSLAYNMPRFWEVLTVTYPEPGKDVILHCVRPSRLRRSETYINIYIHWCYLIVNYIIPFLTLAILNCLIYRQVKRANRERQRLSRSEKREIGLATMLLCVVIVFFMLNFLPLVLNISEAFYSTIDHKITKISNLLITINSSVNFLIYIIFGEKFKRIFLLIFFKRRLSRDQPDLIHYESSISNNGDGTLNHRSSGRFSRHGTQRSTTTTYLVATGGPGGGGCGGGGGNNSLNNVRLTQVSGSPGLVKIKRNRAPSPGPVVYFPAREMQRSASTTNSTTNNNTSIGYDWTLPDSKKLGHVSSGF

CG8784 = assay: CHO cell aequorin luminescence assay, related GPCR; format: cell-based, Drosophila; conditions: 10µM peptide; CHO cells expressing CG8784 and aequorin
virgin females = assay: Receptivity of virgin females after SP injection; format: in vivo, Drosophila; conditions: assayed 5 h after injection
Helicoverpa armigera = conditions: Fan et al., 1999 and 2000; cited from earlier work
[2] = target: T3, Drosophila melanogaster sex peptide receptor (SPR), GPCR encoded by CG16752 (Drosophila melanogaster, UniProt Q8SWR3 1-435); assay: cell-based or functional assay
T3 sequence: T1 sequence (Q8SWR3 1-435)

[3] = target: T4, SPR of Drosophila pseudoobscura (Drosophila pseudoobscura); assay: cell-based or functional assay
T4 chain: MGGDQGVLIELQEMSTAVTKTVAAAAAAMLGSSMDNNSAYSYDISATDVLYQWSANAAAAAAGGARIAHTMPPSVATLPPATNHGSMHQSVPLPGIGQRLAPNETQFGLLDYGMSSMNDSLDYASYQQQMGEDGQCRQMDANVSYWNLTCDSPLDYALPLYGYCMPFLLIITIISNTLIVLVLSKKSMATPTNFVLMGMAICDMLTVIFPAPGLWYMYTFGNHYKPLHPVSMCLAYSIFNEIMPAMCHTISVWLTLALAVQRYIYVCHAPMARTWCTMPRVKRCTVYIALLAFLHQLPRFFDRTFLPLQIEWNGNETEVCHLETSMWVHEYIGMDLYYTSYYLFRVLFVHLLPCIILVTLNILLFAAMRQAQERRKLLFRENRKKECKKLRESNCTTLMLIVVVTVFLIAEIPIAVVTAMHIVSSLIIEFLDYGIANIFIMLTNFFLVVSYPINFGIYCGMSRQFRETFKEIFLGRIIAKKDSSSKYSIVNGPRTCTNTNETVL

SPR of Aedes aegypti = target: T5, SPR of Aedes aegypti (Aedes aegypti); assay: cell-based or functional assay
T5 chain: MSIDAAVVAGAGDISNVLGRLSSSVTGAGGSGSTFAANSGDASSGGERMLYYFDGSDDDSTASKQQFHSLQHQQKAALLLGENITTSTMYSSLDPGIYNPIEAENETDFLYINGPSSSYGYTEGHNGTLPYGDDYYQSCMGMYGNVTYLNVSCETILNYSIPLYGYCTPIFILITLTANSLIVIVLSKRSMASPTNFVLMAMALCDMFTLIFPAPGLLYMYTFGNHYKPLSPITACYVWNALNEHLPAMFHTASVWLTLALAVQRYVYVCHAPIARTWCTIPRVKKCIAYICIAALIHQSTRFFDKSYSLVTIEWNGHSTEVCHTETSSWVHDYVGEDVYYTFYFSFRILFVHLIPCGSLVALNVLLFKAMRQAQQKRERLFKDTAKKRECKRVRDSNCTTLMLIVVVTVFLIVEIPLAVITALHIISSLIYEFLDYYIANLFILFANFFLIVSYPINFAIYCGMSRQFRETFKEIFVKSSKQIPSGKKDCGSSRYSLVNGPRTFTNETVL

SPR of Bombyx mori = target: T6, SPR of Bombyx mori (Bombyx mori); assay: cell-based or functional assay
T6 chain: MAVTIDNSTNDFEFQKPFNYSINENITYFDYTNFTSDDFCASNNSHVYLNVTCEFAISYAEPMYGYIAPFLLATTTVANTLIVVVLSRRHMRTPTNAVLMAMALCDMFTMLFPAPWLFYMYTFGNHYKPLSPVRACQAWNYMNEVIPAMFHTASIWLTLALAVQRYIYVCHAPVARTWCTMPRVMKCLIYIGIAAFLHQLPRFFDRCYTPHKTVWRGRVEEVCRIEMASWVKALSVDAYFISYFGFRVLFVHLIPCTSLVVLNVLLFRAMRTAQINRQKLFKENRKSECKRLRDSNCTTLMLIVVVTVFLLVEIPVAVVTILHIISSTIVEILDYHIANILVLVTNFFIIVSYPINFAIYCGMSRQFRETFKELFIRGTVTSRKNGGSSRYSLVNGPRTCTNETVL

CC[C@H](C)[C@H](NC(=O)[C@H](Cc1c[nH]c2ccccc12)NC(=O)[C@H](CCC(=O)O)NC(=O)[C@@H](NC(=O)[C@H](CC(=O)O)NC(=O)[C@H](CC(N)=O)NC(=O)[C@H](CCCNC(=N)N)NC(=O)[C@H](CC(=O)O)NC(=O)[C@@H]1CCC(=O)N1)[C@@H](C)O)C(=O)N[C@@H](CCC(N)=O)C(=O)N[C@@H](CO)C(=O)N[C@@H](CCC(N)=O)C(=O)N[C@@H](CCCCN)C(=O)N[C@@H](CC(=O)O)C(=O)N[C@@H](CCCNC(=N)N)C(=O)N[C@@H](CCC(=O)O)C(=O)N[C@@H](CCCCN)C(=O)N[C@@H](Cc1c[nH]c2ccccc12)C(=O)N[C@H]1CSSC[C@@H](C(=O)O)NC(=O)[C@H](CCCNC(=N)N)NC(=O)CNC(=O)CNC(=O)[C@H](CC(C)C)NC(=O)[C@H](Cc2ccc(O)cc2)NC(=O)[C@@H]2CCCN2C(=O)CNC(=O)[C@H](CC(C)C)NC(=O)[C@H](CC(N)=O)NC(=O)[C@H](CC(C)C)NC(=O)[C@H](CCCNC(=N)N)NC1=O [DUP99B] ([pGlu]DRNDTEWIQSQKDREKWCRLNLGPYLGGRC-OH; disulfide 19-31)
response of receptor to peptide (D. pseudoobscura SPR): lower sensitivity
response of receptor to peptide (A. aegypti SPR): lower sensitivity
response of receptor to peptide (B. mori SPR): lower sensitivity
post-mating responses [1]: can induce the same post-mating responses as SP

CC[C@H](C)[C@H](NC(=O)[C@@H]1C[C@@H](O)CN1C(=O)[C@H](Cc1ccccc1)NC(=O)[C@H](CCCCN)NC(=O)[C@@H](NC(=O)[C@@H]1C[C@@H](O)CN1C(=O)[C@H](CCCCN)NC(=O)[C@H](CCCNC(=N)N)NC(=O)[C@H](CC(N)=O)NC(=O)[C@H](Cc1c[nH]c2ccccc12)NC(=O)[C@@H]1CCCN1C(=O)[C@H](Cc1c[nH]c2ccccc12)NC(=O)[C@H](CCC(=O)O)NC(=O)[C@@H](N)Cc1c[nH]c2ccccc12)[C@@H](C)O)C(=O)N1C[C@H](O)C[C@H]1C(=O)N[C@@H](CO)C(=O)N1C[C@H](O)C[C@H]1C(=O)N[C@@H](CC(N)=O)C(=O)N1C[C@H](O)C[C@H]1C(=O)N[C@@H](CCCNC(=N)N)C(=O)N[C@@H](CC(=O)O)C(=O)N[C@@H](CCCCN)C(=O)N[C@@H](Cc1c[nH]c2ccccc12)C(=O)N[C@H]1CSSC[C@@H](C(=O)O)NC(=O)[C@H](CCCNC(=N)N)NC(=O)CNC(=O)CNC(=O)[C@H](Cc2c[nH]c3ccccc23)NC(=O)[C@H](C)NC(=O)[C@@H]2CCCN2C(=O)CNC(=O)[C@H](CC(C)C)NC(=O)[C@H](CC(N)=O)NC(=O)[C@H](CC(C)C)NC(=O)[C@H](CCCNC(=N)N)NC1=O [SP]
Ca^2+ responses (CG16752; cotransfected chimeric G protein Gαqi): robust Ca^2+ responses
Ca^2+ responses (CG16752; cotransfected chimeric G protein Gαqo): robust Ca^2+ responses
Ca^2+ responses (CG16752; cotransfected chimeric G protein Gαqs): not Gαqs
luminescence response (CG16752; no additional G protein (endogenous Gαq/11), concentrations as high as 10µM): very weak response
EC50 (D. pseudoobscura SPR): 4.3 nM
EC50 (A. aegypti SPR): 167 nM
EC50 (B. mori SPR): 63 nM
sensitivity to peptide ligand (CG2114): not to SP
sensitivity to peptide ligand (CG8784): not to SP
receptivity to naive males (virgin females; Df(1)Exel6234 homozygous virgins, 12pmol SP injected): remaine receptive
receptivity to naive males (virgin females; wild-type virgins, 12pmol SP injected into haemolymph): unreceptive
post-mating responses (Helicoverpa armigera): can induce post-mating responses

pQLQSNGEPAYRVRTPRLa ([pGlu]LQSNGEPAYRVRTPRL-NH2; SMILES CC(C)C[C@H](NC(=O)[C@H](CCCNC(=N)N)NC(=O)[C@@H]1CCCN1C(=O)[C@@H](NC(=O)[C@H](CCCNC(=N)N)NC(=O)[C@@H](NC(=O)[C@H](CCCNC(=N)N)NC(=O)[C@H](Cc1ccc(O)cc1)NC(=O)[C@H](C)NC(=O)[C@@H]1CCCN1C(=O)[C@H](CCC(=O)O)NC(=O)CNC(=O)[C@H](CC(N)=O)NC(=O)[C@H](CO)NC(=O)[C@H](CCC(N)=O)NC(=O)[C@H](CC(C)C)NC(=O)[C@@H]1CCC(=O)N1)C(C)C)[C@@H](C)O)C(N)=O) [hugin-γ, ligand of CG8784]
activation of receptor by peptide ligand (CG16752; 10µM peptide, co-transfected with Gαqi): Neither of these peptides activates
sensitivity to peptide ligand (CG8784): confer sensitivity

[pGlu]DRNDTEWIQSQKDREKWCRLNLGPYLGGRC (disulfide 19-31 (inferred)) [synthetic DUP99B]
EC50, dose-response of luminescence in CHO cells expressing CG16752, aequorin and Gαqi [2]: 7.3 nM

B1: synthetic sex peptide (SP) of Drosophila melanogaster (peptide)
peptide: WEWPWNRKPTKFPIPSPNPRDKWCRLNLGPAWGGRC
modifications: disulfide 24-36 (inferred); also: hydroxyproline at some P residues, places not given here
EC50, dose-response of luminescence in CHO cells expressing CG16752, aequorin and Gαqi [2]: 1.3 nM
EC50, dose-response of luminescence in CHO cells expressing the SPR, aequorin and Gαqi [3]: 4.3 nM
EC50, dose-response of luminescence in CHO cells expressing the SPR, aequorin and Gαqi (SPR of Aedes aegypti): 167 nM
EC50, dose-response of luminescence in CHO cells expressing the SPR, aequorin and Gαqi (SPR of Bombyx mori): 63 nM
